This is an account of results in patent publication US8053392B2, “Auxin acid-catalyzed stable microemulsion pesticide formulation” (PBI/Gordon Corporation, priority 2007, dated 2011).

A short description of this data set: Chemical stability tests of active ingredients in microemulsion formulations at 40° C. for one month. It counts as physicochemical. The protocol:
Chemical stability tests were conducted on four-way active ingredient microemulsion formulations at 40° C. for one month to determine the active ingredient percent difference at the end of one month.
Other formulations were subjected to accelerated chemical stability tests at a temperature of 40° C. for a period of one month to determine total chemical stability of the active ingredients.
Only the chemical stability of pyraflufen-ethyl was analyzed because of its susceptibility to hydrolysis, as set forth in Examples 13-16.

Where [1] appears, read: four-way microemulsion of Example 11.
Where [2] appears, read: four-way microemulsion of Example 12.

With `CCCCC(CC)COC(=O)COc1ccc(Cl)cc1Cl` (stereo not shown) [2,4-D 2EHE, 2,4-D 2-ethyl hexyl ester], the “Chemical Stability (active ingredient percent difference)” value under setting [1] was “+1.25%” and the “Chemical Stability (active ingredient percent difference)” value under setting [2] is recorded as “+2.02%”.
On to `CCOC(=O)COc1cc(-c2nn(C)c(OC(F)F)c2Cl)c(F)cc1Cl` [Pyraflufen-ethyl], for which the “Pyraflufen-ethyl Chemical Stability” value is “+5.89%” (formulation of Example 13 (2,4-D acid 9.0%, Dicamba […], Pyraflufen-ethyl 0.6%)); “+1.05%” (formulation of Example 14 (2,4-D acid 9.0%, R(+)MCPP 1.63%, Pyraflufen-ethyl 0.6%)); “+1.07%” (formulation of Example 15 (2,4-D acid 9.0%, R(+)MCPP 1.63%, Dicamba […], Pyraflufen-ethyl 0.6%)); “+0.93%” (formulation of Example 16 (2,4-D acid 9.0%, Pyraflufen-ethyl 0.1%)). Besides, the “Chemical Stability (active ingredient percent difference)” value is given as “+1.44%” under setting [1] and −0.90% under setting [2].
For `O=C(O)COc1nc(Cl)c(Cl)cc1Cl` [Triclopyr], the “Chemical Stability (active ingredient percent difference)” value runs as follows: under setting [1], “+1.94%”; under setting [2], “+2.38%”.
